This is an account of results in US20070149509A1, “Use of vitamin e” (priority 2003, published 2007).

The subject of this experiment is melatonin receptor type 1 gene (MT1). In words: Impact of vitamin E on melatonin receptor expression in rat brain (high-density oligonucleotide microarrays). The class given is in vivo. To be noted: male rats, vitamin E containing diet vs vitamin E deficient diet, monitored over 9 months at 4 time-points, brain/hippocampus.

Description: The impact of vitamin E on melatonin receptor expression in rat hippocampus was determined as follows: Two groups of male rats were randomly assigned to either a VE sufficient diet or to a diet deficient in VE for 270 days. High-density oligonucleotide microarrays comprising over 7,000 genes were used to assess the transcriptional response of the brain. Differential gene expression was monitored over a period of 9 months, at 4 different time-points.

Regarding vitamin E, the “melatonin receptor type 1 gene (MT1) expression in the brain” value was “strongly and consistently up-regulated”.
